In paper PMC6615261, “Repurposing Azithromycin and Rifampicin Against Gram-Negative Pathogens by Combination With Peptidomimetics” (Frontiers in Cellular and Infection Microbiology, 2019):

What was measured:
[1] = test system: K. pneumoniae ST258; assay: Potentiation of additional antibiotics (COMPAN1F plates), MIC; type: cell-based, Klebsiella pneumoniae; conditions: for MIC of antibiotic in presence of peptidomimetic 1: + 1 μM peptidomimetic 1; for MIC of antibiotic in presence of peptidomimetic 15: + 1 μM peptidomimetic 15; for MIC of antibiotic in presence of peptidomimetic 26: + 1 μM peptidomimetic 26; for MIC: Klebsiella pneumoniae, read-out: MIC of antibiotic alone; for MIC / MIC of antibiotic alone: no peptidomimetic
Procedure: (§1) Minimal inhibitory concentrations (MICs) of peptidomimetics, antibiotics and their combinations were determined by broth microdilution according to the Clinical Laboratory Standards Institute performance standards (Clinical and Laboratory Standards Institute, [2013]). […] Since rifampicin and azithromycin mainly are used to treat infections with Gram-positive pathogens only CLSI clinical breakpoints were available for such bacteria. […] Potentiation of additional antibiotics by peptidomimetics was determined by using commercial 96-well plates containing varied concentrations of standard antibiotics (COMPAN1F; Trek Diagnostic Systems Inc.). The peptidomimetics were added immediately prior to inoculation with pathogen, and then MICs were determined as above. The MICs of peptidomimetic/antibiotic combinations were determined according to the method above, and the concentration ratios were selected based upon checkerboard results with 2:1 and 1:4 ratio of peptidomimetic with rifampicin or azithromycin, respectively. Minimal bactericidal concentrations (MBCs) were determined by using growth-curve assay plates. MIC plates were prepared as above, and then the plates were incubated at 37°C with continuous shaking. Growth was recorded at 10 min intervals as optical density (OD) at 600 nm during 24 h. At 24 h, for wells without growth, a sample was diluted 10-fold in sterile saline (0.9% sodium chloride) and plated onto MHA, following CLSI guidelines (Clinical and Laboratory Standards Institute, [1999]).

[2] = test system: E. coli ST131; assay: as above; type: cell-based, Escherichia coli; conditions: for MIC of antibiotic in presence of peptidomimetic 26: + 0.25 μM peptidomimetic 26; for MIC of antibiotic in presence of peptidomimetic 1: + 0.5 μM peptidomimetic 1; for MIC of antibiotic in presence of peptidomimetic 15: + 0.5 μM peptidomimetic 15; for MIC: Escherichia coli, read-out: MIC of antibiotic alone; for MIC / MIC of antibiotic alone: no peptidomimetic
Procedure: as §1

| Molecule | MIC of antibiotic in presence of peptidomimetic 1 [1] [µg/mL] | MIC of antibiotic in presence of peptidomimetic 15 [1] [µg/mL] | MIC of antibiotic in presence of peptidomimetic 26 [1] [µg/mL] | MIC [1] [µg/mL] | MIC of antibiotic in presence of peptidomimetic 26 [2] | MIC of antibiotic in presence of peptidomimetic 1 [2] [µg/mL] | MIC of antibiotic in presence of peptidomimetic 15 [2] [µg/mL] | MIC [2] [µg/mL] | MIC of antibiotic alone [2] [µg/mL] | MIC of antibiotic alone [1] [µg/mL] |
| --- | --- | --- | --- | --- | --- | --- | --- | --- | --- | --- |
| CCN1CCN(c2cc3c(cc2F)c(=O)c(C(=O)O)cn3C2CC2)CC1 [Enrofloxacin] | >2 | >2 | >2 | > 2 | >2 µg/mL | >2 | >2 | > 2 | – | – |
| CC[C@H]1OC(=O)[C@H](C)[C@@H](O[C@H]2C[C@@](C)(OC)[C@@H](O)[C@H](C)O2)[C@H](C)[C@@H](O[C@@H]2O[C@H](C)C[C@H](N(C)C)[C@H]2O)[C@](C)(O)C[C@@H](C)C(=O)[C@H](C)[C@@H](O)[C@]1(C)O [Erythromycin] | >4 | >4 | >4 | > 4 | – | – | – | > 4 | >4 | – |
| CNC(C)C1CCC(N)C(OC2C(N)CC(N)C(OC3OCC(C)(O)C(NC)C3O)C2O)O1 (stereo not shown) [Gentamicin] | ≤1 | 2 | ≤1 | 2 | >8 µg/mL | >8 | >8 | > 8 | – | – |
| C[C@@H](O)[C@H]1C(=O)N2C(C(=O)O)=C(SCCN=CN)C[C@H]12 [Imipenem] | >8 | >8 | >8 | > 8 | ≤1 µg/mL | ≤1 | ≤1 | ≤ 1 | – | – |
| CN1CCN(c2c(F)cc3c(=O)c(C(=O)O)cn4c3c2OCN4C)CC1 [Marbofloxacin] | >2 | >2 | >2 | > 2 | >2 µg/mL | >2 | >2 | > 2 | – | – |
| Cc1onc(-c2ccccc2)c1C(=O)N[C@@H]1C(=O)N2[C@@H]1SC(C)(C)[C@@H]2C(=O)O [Oxacillin] | >4 | >4 | >4 | > 4 | >4 µg/mL | >4 | >4 | > 4 | – | – |
| CC1(C)S[C@@H]2[C@H](NC(=O)[C@H](C(=O)O)c3ccsc3)C(=O)N2[C@H]1C(=O)O [Ticarcillin] | >64 | >64 | >64 | > 64 | – | >64 | >64 | > 64 | – | – |
| Amoxicillin/clavulanic acid [Amoxicillin/clavulanic acid (2:1)] | >32 | >32 | >32 | – | 8/4 | 8 | 8 | – | 16 | >32 |
| Penicillin | >8 | >8 | >8 | – | >8 µg/mL | >8 | >8 | – | >8 | >8 |
| Ticarcillin/clavulanic acid [Ticarcillin/clavulanic acid (2:1)] | >64 | >64 | >64 | – | – | 16 | 32 | – | 64 | >64 |
